Several values for one entry are separate records, joined by “and”; a condition that tells them apart may be missing. Equal values may be shown once. Marks after values point to notes of the source that are not given here. Non-standard residues stand in square brackets, D forms with d. Residues, ends and D or L forms follow the SMILES beside them. *: point of attachment. Asu = N[C@@H](CCCCCC(=O)O)C(=O)O; NHOH = ON*
Target: T1, HDAC3/NCoR2 (Homo sapiens, UniProt O15379)
T1 construct: HDAC3/NCoR2 (full length, C-terminal His tag, NCoR2 N-terminal GST tag); purchased BPS Bioscience 50003
Assay: HDAC inhibition assay (fluorogenic, Ac-Leu-Gly-Lys(Ac)-AMC)
Format: biochemical
Conditions: for HDAC3 dose-response data (relative enzyme activity), Fig. 6 + S. Fig. 10: duplicate columns

[1] = log[inhibitor(M)] -10,5850266520292*, whole line marked with asterisks

T1 sequence (O15379 whole entry): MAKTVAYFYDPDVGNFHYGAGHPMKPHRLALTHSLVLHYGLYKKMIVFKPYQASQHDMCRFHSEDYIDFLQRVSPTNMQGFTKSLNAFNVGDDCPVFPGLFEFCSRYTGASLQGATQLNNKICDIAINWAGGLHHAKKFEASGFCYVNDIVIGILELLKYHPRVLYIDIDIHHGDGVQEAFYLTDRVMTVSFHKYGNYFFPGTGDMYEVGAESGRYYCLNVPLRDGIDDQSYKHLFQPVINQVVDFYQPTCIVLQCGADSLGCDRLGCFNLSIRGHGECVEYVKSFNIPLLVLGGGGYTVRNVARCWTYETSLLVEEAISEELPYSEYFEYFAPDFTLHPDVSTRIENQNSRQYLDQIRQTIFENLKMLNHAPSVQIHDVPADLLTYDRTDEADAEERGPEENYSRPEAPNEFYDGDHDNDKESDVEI
T1 sequence (Q9Y618 389-480 partner limits assumed): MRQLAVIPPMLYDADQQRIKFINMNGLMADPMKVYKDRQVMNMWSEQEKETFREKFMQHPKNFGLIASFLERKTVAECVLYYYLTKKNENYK

SMILES	Ki	HDAC3 dose-response data (relative enzyme activity), Fig. 6 + S. Fig. 10 (log[inhibitor(M)] -4.30103)	HDAC3 dose-response data (relative enzyme activity), Fig. 6 + S. Fig. 10 (log[inhibitor(M)] -5)	HDAC3 dose-response data (relative enzyme activity), Fig. 6 + S. Fig. 10 (log[inhibitor(M)] -5.69897)	HDAC3 dose-response data (relative enzyme activity), Fig. 6 + S. Fig. 10 (log[inhibitor(M)] -6.39794)	HDAC3 dose-response data (relative enzyme activity), Fig. 6 + S. Fig. 10 (log[inhibitor(M)] -7.09691)	HDAC3 dose-response data (relative enzyme activity), Fig. 6 + S. Fig. 10 (log[inhibitor(M)] -7.79588)	HDAC3 dose-response data (relative enzyme activity), Fig. 6 + S. Fig. 10 (log[inhibitor(M)] -8.49485)	HDAC3 dose-response data (relative enzyme activity), Fig. 6 + S. Fig. 10 (log[inhibitor(M)] -9.19382)	HDAC3 dose-response data (relative enzyme activity), Fig. 6 + S. Fig. 10 (log[inhibitor(M)] -9.89279)	HDAC3 dose-response data (relative enzyme activity), Fig. 6 + S. Fig. 10 [1]
CC(=O)N[C@@H](C)C(=O)N1CCC[C@H]1C(=O)N[C@@H](C)C(=O)N1CCC[C@H]1C(=O)N[C@@H](CCCCN)C(=O)N[C@@H](CCCCCC(=O)NO)C(=O)NCC(=O)N[C@@H](CO)C(=O)N[C@@H](CCCCN)C(=O)N[C@@H](CCCCN)C(=O)N[C@@H](C)C(=O)N[C@H](C(=O)N[C@H](C(=O)N[C@@H](CCCCN)C(=O)N[C@@H](C)C(=O)N[C@@H](CCC(N)=O)C(=O)N[C@@H](Cc1c[nH]c2ccccc12)C(N)=O)[C@@H](C)O)C(C)C [10a] (Ac-APAPK[Asu](NHOH)GSKKAVTKAQW-NH2)	51.2 ± 0.9 nM	2.766 and 1.97	10.2945 and 7.913	26.7937 and 20.8193	46.8605 and 38.5396	73.2021 and 63.7098	98.3444 and 77.95	104.594 and 95.6609	108.819 and 98.0987	107.136 and 105.407	106,9896* and 85,1199*
CC(=O)N1CCC[C@H]1C(=O)N[C@@H](CCCNC(=N)N)C(=O)N[C@@H](CCCCN)C(=O)N[C@@H](CCC(N)=O)C(=O)N[C@@H](CC(C)C)C(=O)N[C@@H](C)C(=O)N[C@H](C(=O)N[C@@H](CCCCN)C(=O)N[C@@H](C)C(=O)N[C@@H](C)C(=O)N[C@@H](CCCNC(=N)N)C(=O)N[C@@H](CCCCCC(=O)NO)C(=O)N[C@@H](CO)C(=O)N[C@@H](C)C(=O)N1CCC[C@H]1C(=O)N[C@@H](C)C(=O)N[C@@H](Cc1c[nH]c2ccccc12)C(N)=O)[C@@H](C)O [14a] (Ac-PRKQLATKAAR[Asu](NHOH)SAPAW-NH2)	16.8 ± 0.2 nM	0.8181 and 0.573	3.641 and 2.7786	13.6613 and 10.1867	32.1253 and 23.5469	54.9619 and 43.4084	82.3244 and 70.9683	99.6485 and 88.5218	108.712 and 95.7391	105.572 and 99.3991	106,3724* and 79,46551*
CC(=O)NCC(=O)NCC(=O)N[C@@H](CCCCCC(=O)NO)C(=O)N[C@@H](C)C(=O)N[C@@H](CCCNC(=N)N)C(=O)N[C@@H](C)C(=O)N[C@@H](CCCCN)C(=O)N[C@@H](C)C(=O)N[C@@H](CCCCN)C(=O)N[C@H](C(=O)N[C@@H](CCCNC(=N)N)C(=O)N[C@@H](CO)C(=O)N[C@@H](CO)C(=O)N[C@@H](CCCNC(=N)N)C(=O)N[C@@H](C)C(=O)NCC(=O)N[C@@H](Cc1c[nH]c2ccccc12)C(N)=O)[C@@H](C)O [9a] (Ac-GG[Asu](NHOH)ARAKAKTRSSRAGW-NH2)	7.66 ± 0.07 nM	0.3821 and 0.6391	2.293 and 2.409	8.406 and 7.571	24.6725 and 18.9774	37.2271 and 35.3982	64.8472 and 61.8977	94.5961 and 96.0669	98.4716 and 100.59	99.7271 and 104.621	100,6* and 100,492*
CC(=O)N[C@@H](CC(C)C)C(=O)NCC(=O)N[C@@H](CCCCN)C(=O)NCC(=O)NCC(=O)N[C@@H](C)C(=O)N[C@@H](CCCCCC(=O)NO)C(=O)N[C@@H](CCCNC(=N)N)C(=O)N[C@@H](Cc1c[nH]cn1)C(=O)N[C@@H](CCCNC(=N)N)C(=O)N[C@@H](CCCCN)C(=O)N[C@H](C(=O)N[C@@H](CC(C)C)C(=O)N[C@@H](CCCNC(=N)N)C(=O)N[C@@H](CC(=O)O)C(=O)N[C@@H](CC(N)=O)C(=O)N[C@@H](Cc1c[nH]c2ccccc12)C(N)=O)C(C)C [16a] (Ac-LGKGGA[Asu](NHOH)RHRKVLRDNW-NH2)	2.22 ± 0.02 nM	0.4175 and 0.3694	1.3048 and 1.953	3.445 and 2.8496	11.0647 and 10.1847	22.9645 and 23.8522	45.6159 and 50.9763	73.3299 and 73.9314	93.2672 and 99.1029	96.9207 and 113.14	99,4259* and 104,433*
